These are literature values, as cited in patent US7148350B2, “Compounds in the form of homodimeric or heterodimeric pro-drugs; process for obtaining these pro-drugs and their acceptable pharmaceutical salts and use of compounds in the treatment of phosphodiesterases-mediated diseases or dysfunction” (Cristalia Prod.Qui.Farm. LTDA, priority 2000, dated 2006).

In general, EC50 refers to the concentration giving half of the maximal effect.

For series [1] the following is noted: dimer versus isolated monomers.
Series [2] concerns granulocyte progenitor cells and macrophages. The note with it: dimer versus monomers.
The next series concerns erectile dysfunction. The settings on record: oral administration; patients with organic erectile dysfunction.
The conditions of series [3]: after administration; limited by pre-systemic metabolism.

Consider `Cc1cn([C@H]2C[C@H](N=[N+]=[N-])[C@@H](COP(=O)(O)OC[C@@H]3CC[C@H](n4cnc5c(=O)[nH]cnc54)O3)O2)c(=O)[nH]c1=O` [AZT-P-DDI], for which the 50% effective concentration (EC50) in series [1] is 0.14 nM. For the same molecule, the “less toxicity (fold)” value in series [2] is reported as 10 times. For the same molecule, the “time after which plasmatic concentration is no longer detected” value (intravenous administration, 50 or 100 mg) was 30 min. For the same molecule, the “detection of the dimer after oral administration” value (oral administration) is “not detected”.

As to `COC(=O)[C@@H]1[C@H]2C[C@H]3c4[nH]c5ccccc5c4CCN3C[C@@H]2CC[C@@H]1O` [Yohimbine], the effectiveness entry in the series with erectile dysfunction is reported as “low”. Regarding `Cc1cn([C@H]2C[C@H](N=[N+]=[N-])[C@@H](CO)O2)c(=O)[nH]c1=O` [AZT, zidovudine], the EC50 in series [1] is 3.9 nM. Besides, under “after oral administration of AZT-P-DDI”, the oral bioavailability was 64.7–67.3%.

On to `CCCc1nn(C)c2c(=O)[nH]c(-c3cc(S(=O)(=O)N4CCN(C)CC4)ccc3OCC)nc12` [sildenafil], for which, in series [3], the absolute bioavailability is given as 40%. Take `O=c1[nH]cnc2c1ncn2[C@H]1CC[C@@H](CO)O1` [DDI, didanosine]: in series [1], the EC50 is 460 nM.
